How the values were obtained:
[1] = test system: MB-49 Bladder Cancer cells; experiment: MB-49 bladder cancer model in hLRRC32KI mice; conditions: FTY720 2 mg/kg every two days, 6 doses, with PIIO-1
Description: A. 1×10^5 MB-49 Bladder Cancer cells were injected s.c. on the right flank of hLRRC32KI mice. […] Representative tumor curve. B. 1×10^5 MB-49 Bladder cancer cells were injected s.c. on the right flank of hLRRC32KI mice. […] Tumors were collected and perform flow cytometry on day 10. Frequency of CD8+ T cells as a proportion of live CD45+ lymphocytes (left). 1×10^5 MB-49 Bladder Cancer cells were injected s.c. on the right flank of hLRRC32KI mice. […] Tumors were collected and perform flow cytometry on day 22. […] C. Frequency of CD25+Foxp3^+ Tregs in CD4+ tumor-infiltrating T cells (left). […] UMAP dimension reduction of tumor-infiltrating CD8+ T cells from B after staining with 33 markers and spectral flow cytometry analysis. Shown is the data gated on live CD45+CD3+CD8+ T cells, subsampled on 5000 cells per sample Unsupervised clustering analysis was done using FlowSOM algorithm with an elbow method approach for cluster number determination. E. Heatmap of D showing expression levels of indicated markers by each cluster. […] Cluster differences were measured by two-tailed Student's t test.
A. Experimental scheme. […] Overall survival is analyzed by log-rank (Mantel-Cox) test. […]
A. 1×10^5 MB-49 Bladder Cancer cells were injected s.c. in the right flank of hLRRC32KI mice. […] B. Quantification of panel A. 1×10^5 MB-49 Bladder Cancer cells were injected s.c. on the right flank of hLRRC32KI mice. […]

[2] = test system: platinum resistant advanced NSCLC; experiment: POPLAR database analysis by LRRC32 (GARP) expression; type: in vivo, human; conditions: for OS or disease control rate, Atezolizumab vs docetaxel: patients with high GARP expression
Excerpt: Mechanistically, PD-1 blockade works primarily by targeting the progenitor exhausted population of CD8^+ T cells in the TME (TCF-1 expressing, SlamF6 expressing, PD-1 intermediate to low expressing). These cells deliver the proliferative burst following treatment resulting in increased differentiation to the terminal exhausted population, which is responsible for tumor clearance. […] Thus, we hypothesized GARP expression can contribute to PD-1/L1 ICB resistance. To address this hypothesis, we first mined the POPLAR database which compared PD-L1 blockade Atezolizumab with chemotherapy (i.e., docetaxel) for the platinum resistant advanced NSCLC. In this multi-center international phase II trial, bulk RNAseq data from pre-treatment tumors were available for 86 patients enrolled primarily in the US sites. We divided these patients into GARP high and low expression group with median expression level of LRRC32 transcript as the cutoff. […] To further address this hypothesis, we tested the combination therapy of anti-GARP antibody huPIIO-1 and PD-1 blockade in murine Lewis Lung Carcinoma (LLC) and CMT-167 lung cancer models, both of which are considered immunologically cold tumors with resistance to single agent PD-1 ICB. To do so, the human GARP KI mice were challenged with LCC followed by treatment with 200 μg/mouse of Isotype, huPIIO-1, anti-PD-1 antibody, or a combination of huPIIO-1 and PD-1 every 3 days starting on day 8 post tumor challenge for a total of 4 injections.

[3] = test system: B16-F1 melanomas; experiment: B16-F1 melanoma, adoptive T cell therapy with anti-platelet agents; type: in vivo, mouse; conditions: for anti-tumor effect: aspirin and clopidogrel added to Cy, no T cells; for antigen-specific T cells in blood, ILNs and spleens: aspirin and clopidogrel concurrent with ACT; for efficacy and relapse-free survival: aspirin and clopidogrel plus Cy and adoptive Pmel T cell transfer
[4] = test system: Baculovirus; experiment: Baculovirus (BV) ELISA for non-specific binding
Description: Baculovirus (BV) ELISA was employed as a preliminary assay to evaluate antibody's potential nonspecific binding risk.
In Baculovirus (BV) ELISA, the inventor used Rituxan Mab as reference. […] If a clone only has binding on BV, but not on 293 cells, it will be considered as having a low risk of non-specific binding.
Methods—Baculovirus ELISA. Plates are coated with 50 μl of 1:500 diluted Baculovirus sample in PBS in each well. Plates are kept at 4° C. for overnight. The plates are washed with 300 μL of wash buffer ×3 and 200 μl blocking buffer (1% BSA) is added at RT for 60 min. Plates are washed with 300 μl of wash buffer ×3 and 100 μl of diluted Abs are added at different concentrations/well, followed by RT incubation for 1 hr. Plates are washed with 300 μl of wash buffer ×6 and 100 μl of 1:5000 HRP conjugated second Ab in PBS is added followed by RT incubation for 1 hr. The plates are washed with 300 μl of wash buffer ×6. Developing buffer is added and the plate is read.

[5] = patients with low GARP expression

How did the “effect of FTY720 on anti-tumor efficacy of PIIO-1 and T cell infiltration” value [1] turn out when `CCCCCCCCc1ccc(CCC(N)(CO)CO)cc1` [FTY720] was run?
The value was “abrogated the anti-tumor efficacy of PIIO-1 and effectively blocked T cell infiltration”.

What does the source list for Atezolizumab: PD-L1 blockade?
OS or disease control rate, Atezolizumab vs docetaxel [2]: did not demonstrate any difference; disease control rate [2, 5]: 68.2%; overall survival HR, Atezolizumab vs docetaxel ([2]; patients with low GARP expression, p=0.086): 1.89

How did the tumor control ([3]; Cy alone) turn out when `O=P1(N(CCCl)CCCl)NCCCO1` (stereo not drawn) [Cy, cyclophosphamide] was run?
Its tumor control is “failed to control tumors”.

How did the anti-tumor effect [3] turn out when `CC(=O)Oc1ccccc1C(=O)O` [aspirin] was run?
Its anti-tumor effect is “no anti-tumor effects”.

What about the “antigen-specific T cells in blood, ILNs and spleens” value [3] of the same compound?
The value was “sustained at higher numbers”.

What about the “efficacy and relapse-free survival” value [3] of the same compound?
Its value is “highly effective against B16-F1 with relapse-free survival of most mice beyond 3 months”.

What does the source list for `CC(=O)O[C@@]12CO[C@@H]1C[C@H](O)[C@@]1(C)C(=O)[C@H](O)C3=C(C)[C@@H](OC(=O)[C@H](O)[C@@H](NC(=O)OC(C)(C)C)c4ccccc4)C[C@@](O)([C@@H](OC(=O)c4ccccc4)[C@H]21)C3(C)C` [docetaxel]?
OS or disease control rate, Atezolizumab vs docetaxel [2]: did not demonstrate any difference; disease control rate [2, 5]: 9.5%

How did the “BV ELISA with purified IgG, raw BV binding data” value (“BV ELISA with purified IgG” below) ([4]; Ab. Conc. 0.15625 ug/ml) turn out when “Rituxan: Rituxan Mab used as reference in BV ELISA [reference compound]” was run?
The value was 12.1.

And the “BV ELISA with purified IgG” value ([4]; Ab. Conc. 0.3125 ug/ml)?
The value was 13.7.

And the “BV ELISA with purified IgG” value ([4]; Ab. Conc. 0.625 ug/ml)?
Its value is 13.7.

What about the “BV ELISA with purified IgG” value ([4]; Ab. Conc. 1.25 ug/ml) of the same compound?
The value was 13.0.

What about the “BV ELISA with purified IgG” value ([4]; Ab. Conc. 2.5 ug/ml) of the same compound?
The value was 17.0.

And the “BV ELISA with purified IgG” value ([4]; Ab. Conc. 5 ug/ml)?
The value was 22.7.

And the “BV ELISA with purified IgG” value ([4]; Ab. Conc. 10 ug/ml)?
Its value is 66.0.

And the “BV ELISA with purified IgG” value ([4]; Ab. Conc. 20 ug/ml)?
The value was 98.8.

What does the source list for `COC(=O)[C@H](c1ccccc1Cl)N1CCc2sccc2C1` [clopidogrel]?
anti-tumor effect [3]: no anti-tumor effects; antigen-specific T cells in blood, ILNs and spleens [3]: sustained at higher numbers; efficacy and relapse-free survival [3]: highly effective against B16-F1 with relapse-free survival of most mice beyond 3 months

Reference: patent publication US20240425571A1, “GLYCOPROTEIN A REPETITIONS PREDOMINANT (GARP)-BINDING ANTIBODIES AND USES THEREOF” (OHIO STATE INNOVATION FOUNDATION, priority 2021, published 2024)
